Source: paper PMC7377239, “Cardiovascular Effects of Polychlorinated Biphenyls and Their Major Metabolites” (Environmental Health Perspectives, 2020)
Counter-ions that a name gives are not always drawn. Like-named read-outs stand apart in the source and are kept apart here.

How the values were obtained:
HUVECs [1] = experiment: Tube formation (tubulogenesis) assay in HUVECs, 18 h; format: cell-based, human; conditions: Homo sapiens, HUVEC, 18 h, HUVEC; for activity at 0.1 µM: 0.10 µM
In short: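 HUVECs (passage 1–5) seeded on reduced-growth-factor basement membrane and exposed to compounds overnight at 37°C, 5% CO2, in 2× maintenance medium with 12.5 ng/mL VEGF; 0.5% DMSO vehicle. Calcein AM-stained tube networks imaged and analysed; vehicle-normalized readouts fit to four-parameter logistic, POD set at one SD of vehicle means.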

HUVECs [2] = experiment: High-content imaging cytotoxicity in HUVECs, 24 h; format: cell-based, human; conditions: Homo sapiens, HUVEC, 24 h, HUVEC; for viability at 0.01 µM / activity at 0.01 µM / viability at 0.1 µM / activity at 0.1 µM / viability at 1 µM / activity at 1 µM / viability at 10 µM / activity at 10 µM / viability at 100 µM / activity at 100 µM: 0.00 µM = 100.00; for viability at 0.1 µM / activity at 0.1 µM: 0.10 µM
In short: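 Read-out: multiwavelength high-content imaging of Hoechst 33342, MitoTracker Orange and calcein AM after 24 h compound exposure of confluent HUVEC monolayers. POD values were set using a one-SD cutoff from vehicle (0.5% DMSO) means; with no concentration–response, 100μM was assigned as no observable adverse effect level.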

[3] = tube formation mtl, read-out: POD huvec.mtl.18hr
[4] = tube formation tlps, read-out: POD huvec.tlps.18hr
[5] = tube formation tta, read-out: POD huvec.tta.18hr
[6] = tube formation ttl, read-out: POD huvec.ttl.18hr
[7] = cyto, 24 hr, read-out: POD huvec.cyto.24hr
[8] = mito, 24 hr, read-out: POD huvec.mito.24hr
[9] = mitoint, 24 hr, read-out: POD huvec.mitoint.24hr
[10] = nma, 24 hr, read-out: POD huvec.nma.24hr
[11] = tc, 24 hr, read-out: POD huvec.tc.24hr
[12] = HUVECs, 0.00 µM = 100.00, read-out: huvec.mtl.18hr
[13] = HUVECs, 0.00 µM = 100.00, read-out: huvec.tlps.18hr
[14] = HUVECs, 0.00 µM = 100.00, read-out: huvec.tta.18hr
[15] = HUVECs, 0.00 µM = 100.00, read-out: huvec.ttl.18hr
[16] = HUVECs, 24 hr, read-out: huvec.cyto.24hr
[17] = HUVECs, 24 hr, read-out: huvec.mito.24hr
[18] = HUVECs, 24 hr, read-out: huvec.mitoint.24hr
[19] = HUVECs, 24 hr, read-out: huvec.nma.24hr
[20] = HUVECs, 24 hrs, read-out: huvec.tc.24hrs

`Oc1ccc(-c2ccc(Cl)cc2)cc1` [4'-OH-PCB 3] gave a minimal effective concentration (HUVECs [1]; [3]) of 1.21 µM, a minimal effective concentration (HUVECs [1]; [4]) of 0.51 µM and a minimal effective concentration (HUVECs [1]; [5]) of 5.36 µM. For the same compound, the minimal effective concentration (HUVECs [1]; [6]) was 5.16 µM, the minimal effective concentration (HUVECs [2]; [7]) was 7.01 µM and the minimal effective concentration (HUVECs [2]; [8]) was 3.9 µM. For the same compound, the minimal effective concentration (HUVECs [2]; [9]) was 11.2 µM, the minimal effective concentration (HUVECs [2]; [10]) was 6.91 µM and the minimal effective concentration (HUVECs [2]; [11]) was 7.01 µM.
For `O=S(=O)(O)Oc1cc(Cl)c(-c2cc(Cl)ccc2Cl)cc1Cl` [4-PCB 52 sulfate], the minimal effective concentration (HUVECs [1]; [3]) was 14.6 µM, the minimal effective concentration (HUVECs [1]; [4]) was 10.1 µM and the minimal effective concentration (HUVECs [1]; [5]) was 100 µM. The minimal effective concentration (HUVECs [1]; [6]) was 100 µM, the minimal effective concentration (HUVECs [2]; [7]) was 5.38 µM and the minimal effective concentration (HUVECs [2]; [8]) was 3.31 µM. The minimal effective concentration (HUVECs [2]; [9]) was 61.2 µM, the minimal effective concentration (HUVECs [2]; [10]) was 33.9 µM and the minimal effective concentration (HUVECs [2]; [11]) was 5.38 µM.
With `Oc1ccccc1-c1ccc(Cl)cc1` [2'-OH-PCB 3] the minimal effective concentration (HUVECs [1]; [3]) was 100 µM, the minimal effective concentration (HUVECs [1]; [4]) was 0.57 µM and the minimal effective concentration (HUVECs [1]; [5]) was 100 µM. It also gave a minimal effective concentration (HUVECs [1]; [6]) of 100 µM, a minimal effective concentration (HUVECs [2]; [7]) of 5.19 µM and a minimal effective concentration (HUVECs [2]; [8]) of 4.06 µM. It also gave a minimal effective concentration (HUVECs [2]; [9]) of 34.4 µM, a minimal effective concentration (HUVECs [2]; [10]) of 1.6 µM and a minimal effective concentration (HUVECs [2]; [11]) of 5.19 µM.
`O=S(=O)(O)Oc1ccc(-c2ccc(Cl)cc2)cc1` [4'-PCB 3 sulfate] showed a minimal effective concentration (HUVECs [1]; [3]) of 11.2 µM, a minimal effective concentration (HUVECs [1]; [4]) of 100 µM and a minimal effective concentration (HUVECs [1]; [5]) of 25.4 µM. The minimal effective concentration (HUVECs [1]; [6]) was 100 µM, the minimal effective concentration (HUVECs [2]; [7]) was 100 µM and the minimal effective concentration (HUVECs [2]; [8]) was 100 µM. For the same compound, the minimal effective concentration (HUVECs [2]; [9]) was 100 µM, the minimal effective concentration (HUVECs [2]; [10]) was 100 µM and the minimal effective concentration (HUVECs [2]; [11]) was 100 µM.
`O=S(=O)(O)Oc1ccc(-c2ccc(Cl)cc2)cc1` [4'-yl PCB 3 sulfate] gave an activity at 0.01 µM (HUVECs [1]; [12]) of 107%, an activity at 0.01 µM (HUVECs [1]; [13]) of 166% and an activity at 0.01 µM (HUVECs [1]; [14]) of 116%. The activity at 0.01 µM (HUVECs [1]; [15]) was 109%, the activity at 0.1 µM (HUVECs [1]; [12]) was 106% and the activity at 0.1 µM (HUVECs [1]; [13]) was 138%. For the same compound, the activity at 0.1 µM (HUVECs [1]; [14]) was 140%, the activity at 0.1 µM (HUVECs [1]; [15]) was 133% and the activity at 1 µM (HUVECs [1]; [12]) was 117%. It also gave an activity at 1 µM (HUVECs [1]; [13]) of 173%, an activity at 1 µM (HUVECs [1]; [14]) of 125% and an activity at 1 µM (HUVECs [1]; [15]) of 123%. The activity at 10 µM (HUVECs [1]; [12]) was 93%, the activity at 10 µM (HUVECs [1]; [13]) was 102% and the activity at 10 µM (HUVECs [1]; [14]) was 93.4%. The activity at 10 µM (HUVECs [1]; [15]) was 88.6%, the activity at 100 µM (HUVECs [1]; [12]) was 57.3% and the activity at 100 µM (HUVECs [1]; [13]) was 38.9%. It also gave an activity at 100 µM (HUVECs [1]; [14]) of 53.2%, an activity at 100 µM (HUVECs [1]; [15]) of 59.7% and a minimal effective concentration (HUVECs [1]; HUVECs, top concentration 100.00 µM, read-out: huvec.mtl.18hr POD) of 11.2 µM. It also gave a minimal effective concentration (HUVECs [1]; HUVECs, top concentration 100.00 µM, read-out: huvec.tlps.18hr POD) of 100 µM, a minimal effective concentration (HUVECs [1]; HUVECs, top concentration 100.00 µM, read-out: huvec.tta.18hr POD) of 25.4 µM and a minimal effective concentration (HUVECs [1]; HUVECs, top concentration 100.00 µM, read-out: huvec.ttl.18hr POD) of 100 µM. For the same compound, the viability at 0.01 µM (HUVECs [2]; [16]) was 98.5%, the activity at 0.01 µM (HUVECs [2]; [17]) was 97.5% and the activity at 0.01 µM (HUVECs [2]; [18]) was 90.2%. For the same compound, the activity at 0.01 µM (HUVECs [2]; [19]) was 99%, the viability at 0.1 µM (HUVECs [2]; [16]) was 90.8% and the activity at 0.1 µM (HUVECs [2]; [17]) was 89.7%. It also gave an activity at 0.1 µM (HUVECs [2]; [18]) of 109%, an activity at 0.1 µM (HUVECs [2]; [19]) of 102% and a viability at 1 µM (HUVECs [2]; [16]) of 87.4%. For the same compound, the activity at 1 µM (HUVECs [2]; [17]) was 86.3%, the activity at 1 µM (HUVECs [2]; [18]) was 97.9% and the activity at 1 µM (HUVECs [2]; [19]) was 100%. The viability at 10 µM (HUVECs [2]; [16]) was 103%, the activity at 10 µM (HUVECs [2]; [17]) was 103% and the activity at 10 µM (HUVECs [2]; [18]) was 83.8%. For the same compound, the activity at 10 µM (HUVECs [2]; [19]) was 97.1%, the viability at 100 µM (HUVECs [2]; [16]) was 88.9% and the activity at 100 µM (HUVECs [2]; [17]) was 87.6%. For the same compound, the activity at 100 µM (HUVECs [2]; [18]) was 114%, the activity at 100 µM (HUVECs [2]; [19]) was 97.7% and the minimal effective concentration (HUVECs [2]; HUVECs, 24 hr, top concentration 100.00 µM, read-out: huvec.cyto.24hr POD) was 100 µM. The minimal effective concentration (HUVECs [2]; HUVECs, 24 hr, top concentration 100.00 µM, read-out: huvec.mito.24hr POD) was 100 µM, the minimal effective concentration (HUVECs [2]; HUVECs, 24 hr, top concentration 100.00 µM, read-out: huvec.mitoint.24hr POD) was 100 µM and the minimal effective concentration (HUVECs [2]; HUVECs, 24 hr, top concentration 100.00 µM, read-out: huvec.nma.24hr POD) was 100 µM. The viability at 0.01 µM (HUVECs [2]; [20]) was 98.5%, the viability at 0.1 µM (HUVECs [2]; [20]) was 90.8% and the viability at 1 µM (HUVECs [2]; [20]) was 87.4%. For the same compound, the viability at 10 µM (HUVECs [2]; [20]) was 103%, the viability at 100 µM (HUVECs [2]; [20]) was 88.9% and the minimal effective concentration (HUVECs [2]; HUVECs, 24 hrs, top concentration 100.00 µM, read-out: huvec.tc.24hrs POD) was 100 µM.
